Patent US7993687B2, “Compositions and methods for management of diabetes” (priority 2006, dated 2011)

These compounds were tested on p42/44 MAPK (Thr202/Tyr204) (assay: Western blot of MAPK phosphorylation in H4IIE cells). Conditions: BWE treatment, 6 min, 15-min preincubation with PKA/PKC inhibitor (None = BWE alone), one experiment.
Assay type: cell-based, rat
Procedure: Tissue culture media, antibiotics, fetal bovine serum (FBS) and Nunc tissue culture plates were purchased from Invitrogen Canada Inc. (Burlington, Ontario, Canada, L7P 1A1). Insulin (Sigma-Aldrich Canada Ltd., Oakville, Ontario, Canada, L6H 6J8) was dissolved in water and added directly to cells at a concentration of 250 nM unless otherwise indicated. The BWE was prepared and analyzed as described in Example 1. Two μL of the BWE were added directly to cells unless otherwise indicated. […] Myo-inositol (Sigma-Aldrich Canada Ltd.) and D-chiro-inositol (Industrial Research Ltd., Wellington, New Zealand) were dissolved in water at an equal concentration to the amounts present in the BWE (Table 3) and 2 μL of each solution (0.1% v/v final concentration) was added directly to cells.
(§1) Rat H4IIE hepatoma cells (American Type Culture Collection, CRL 1548) were cultured following the method disclosed by Yau et al., (1998, Eur. J. Biochem. 253: 91-1). The H4IIE cells were maintained in α-modified Eagle's media containing 10% FBS, 2 mM glutamine, 25 μg·mL^−1 streptomycin and 25 units·mL^−1 penicillin. Cells were plated and grown to 70% confluence. All cells were placed into serum-free medium for 72 h before addition of stimulating agents to ensure entry into a quiescent state.
(§2) Cultures of quiescent H4IIE cells or quiescent FAO cells were placed into 12-well culture dishes containing 2 mL serum-free medium, and then stimulated by direct addition of the inhibitors listed in Table 1 (volumes of additions were 10 μL or less) without replacing the medium. […] The cells in 12-well culture dishes were incubated with stimulating agents for 6 minutes and rinsed with phosphate buffered saline (PBS; 0.9% NaCl, 0.1 M Na3PO4, pH 7.1).
(§3) Cellular protein extracts were prepared by addition of 200 μL 2×SDS/gel loading buffer (0.125 M Tris pH 6.8, 2% SDS, 10% glycerol) to H4IIE cells in 12-well culture dishes. The samples were briefly sonicated, and protein content measured using the BCA protein assay kit. Aliquots containing equal amounts of protein were mixed with bromophenol blue (0.5% (w/v) final concentration) and 2-mercaptoethanol (5% (v/v) final concentration), heated at 95° C. and loaded onto 7.5% or 10% polyacrylamide gels. […] Primary antibodies (diluted 1:1000 in 3% (w/v) BSA) were incubated with the membrane for 60 min at 22° C. Membranes were subsequently washed four times and incubated for an additional 60 min at 1 8-22° C. in 1% (w/v) BSA-TBST with diluted HRP-coupled secondary antibody (1:10 000). HRP was detected using the ECL chemiluminescent system after the membranes had been washed four times.
Quantification of data obtained on film (Kodak X-omat) was accomplished with a GS800 imaging densitometer (Bio-Rad Laboratories) under nonsaturating conditions with local background subtraction. Although multiple exposures were acquired to ensure the absence of film saturation, the experimental figures typically show longer exposures selected specifically for visual presentation and not necessarily used for data analysis. Graphical data are presented as means±SE for a minimum of three replicate samples. […]

Compound	phosphorylation of MAPK, stimulation (fold) relative to the control (Table 6) [fold]
Cn1c2ccccc2c2c3c(c4c5ccccc5n(CCC#N)c4c21)CNC3=O [Go6976]	4.32
COc1ccc2c(c1)c1c3c(c4c5ccccc5n(C)c4c1n2CC(O)CN(C)C)C(=O)NC3=O (stereo not shown) [Go7874]	3.10
CC(=O)c1c(O)c(C)c(O)c(Cc2c(O)c3c(c(C(=O)/C=C/c4ccccc4)c2O)OC(C)(C)C=C3)c1O [Rottlerin]	3.85

Same assay, conditions: BWE-stimulated, 6 min, 15-min preincubation with the inhibitor (None = BWE alone), one experiment

Compound	p42/44 P-MAPK (Thr202/Tyr204) phosphorylation, stimulation (fold) relative to the control [fold]
COc1ccc2c(c1)CC[C@@H]1[C@@H]2CC[C@]2(C)[C@@H](NCCCCCCN3C(=O)C=CC3=O)CC[C@@H]12 [U73]	8.6
O=c1cc(N2CCOCC2)oc2c(-c3ccccc3)cccc12 [LY294002]	13.1
N#C/C(=C/c1ccc(O)c(O)c1)C(=O)NCc1ccccc1 [AG490]	12.9

Same assay, conditions: insulin treatment, 6 min, 15-min preincubation with PKA/PKC inhibitor (None = insulin alone), one experiment

Compound	phosphorylation of MAPK, stimulation (fold) relative to the control (Table 6) [fold]
Cn1c2ccccc2c2c3c(c4c5ccccc5n(CCC#N)c4c21)CNC3=O [Go6976]	4.68
COc1ccc2c(c1)c1c3c(c4c5ccccc5n(C)c4c1n2CC(O)CN(C)C)C(=O)NC3=O (stereo not shown) [Go7874]	2.60
CC(=O)c1c(O)c(C)c(O)c(Cc2c(O)c3c(c(C(=O)/C=C/c4ccccc4)c2O)OC(C)(C)C=C3)c1O [Rottlerin]	2.46

Same assay, conditions: insulin-stimulated, 6 min, 15-min preincubation with the inhibitor (None = insulin alone), one experiment

Compound	p42/44 P-MAPK (Thr202/Tyr204) phosphorylation, stimulation (fold) relative to the control [fold]
COc1ccc2c(c1)CC[C@@H]1[C@@H]2CC[C@]2(C)[C@@H](NCCCCCCN3C(=O)C=CC3=O)CC[C@@H]12 [U73]	13.4
CC(C)(C)c1cc(C=C(C#N)C#N)cc(Br)c1O [AG1024]	16.74
O=c1cc(N2CCOCC2)oc2c(-c3ccccc3)cccc12 [LY294002]	10.4
N#C/C(=C/c1ccc(O)c(O)c1)C(=O)NCc1ccccc1 [AG490]	16.4

Same assay, conditions: preincubation with inhibitor, then insulin or BWE for 6 minutes

Compound	effect of the inhibitor on insulin- and BWE-stimulated phosphorylation of MAPK
1-butanol	required for stimulation of MAPK by insulin and the BWE
C[C@H]1CCC/C=C/[C@@H]2C[C@H](O)C[C@H]2[C@H](O)/C=C/C(=O)O1 [brefeldin, Brefeldin A]	not involved in this process
Cc1ccc(-c2nn(C(C)(C)C)c3ncnc(N)c23)cc1 [PP1]	required for stimulation of MAPK by the BWE only

What follows are compounds tested on Raf (Ser259) (assay: Western blot of Raf phosphorylation in H4IIE cells). Conditions: BWE-stimulated, 6 min, 15-min preincubation with the inhibitor (None = BWE alone), one experiment.
Assay type: cell-based, rat
Procedure: (§4) Tissue culture media, antibiotics, fetal bovine serum (FBS) and Nunc tissue culture plates were purchased from Invitrogen Canada Inc. (Burlington, Ontario, Canada, L7P 1A1). Insulin (Sigma-Aldrich Canada Ltd., Oakville, Ontario, Canada, L6H 6J8) was dissolved in water and added directly to cells at a concentration of 250 nM unless otherwise indicated. The BWE was prepared and analyzed as described in Example 1. Two μL of the BWE were added directly to cells unless otherwise indicated. This amount was chosen on the basis of equivalence to insulin. Myo-inositol (Sigma-Aldrich Canada Ltd.) and D-chiro-inositol (Industrial Research Ltd., Wellington, New Zealand) were dissolved in water at an equal concentration to the amounts present in the BWE (Table 3) and 2 μL of each solution (0.1% v/v final concentration) was added directly to cells.
as §1, §2, §3
(§5) Quantification of data obtained on film (Kodak X-omat) was accomplished with a GS800 imaging densitometer (Bio-Rad Laboratories) under nonsaturating conditions with local background subtraction. Although multiple exposures were acquired to ensure the absence of film saturation, the experimental figures typically show longer exposures selected specifically for visual presentation and not necessarily used for data analysis. Graphical data are presented as means±SE for a minimum of three replicate samples.

Compound	Raf (Ser259) phosphorylation, stimulation (fold) relative to the control [fold]
COc1ccc2c(c1)CC[C@@H]1[C@@H]2CC[C@]2(C)[C@@H](NCCCCCCN3C(=O)C=CC3=O)CC[C@@H]12 [U73]	0.12
O=c1cc(N2CCOCC2)oc2c(-c3ccccc3)cccc12 [LY294002]	0.08
N#C/C(=C/c1ccc(O)c(O)c1)C(=O)NCc1ccccc1 [AG490]	0.16

Same assay, conditions: insulin-stimulated, 6 min, 15-min preincubation with the inhibitor (None = insulin alone), one experiment

Compound	Raf (Ser259) phosphorylation, stimulation (fold) relative to the control [fold]
COc1ccc2c(c1)CC[C@@H]1[C@@H]2CC[C@]2(C)[C@@H](NCCCCCCN3C(=O)C=CC3=O)CC[C@@H]12 [U73]	0.99
CC(C)(C)c1cc(C=C(C#N)C#N)cc(Br)c1O [AG1024]	0.26
O=c1cc(N2CCOCC2)oc2c(-c3ccccc3)cccc12 [LY294002]	0.22
N#C/C(=C/c1ccc(O)c(O)c1)C(=O)NCc1ccccc1 [AG490]	0.13

These compounds were tested on H4IIE cells (assay: 3H-deoxyglucose uptake by H4IIE cells). Conditions: H4IIE cells; pre-incubated with inhibitor, then insulin.
Assay type: cell-based, rat
Procedure: Tissue culture media, antibiotics, fetal bovine serum (FBS) and Nunc tissue culture plates were purchased from Gibco-BRL (division of Invitrogen Canada Inc.). Insulin (Sigma-Aldrich Canada Ltd.) was dissolved in water and added directly to cells at a final concentration of 10^−6 M. The buckwheat extract was prepared and analyzed as in Example 1. Two μL of the buckwheat extract were added directly to cells unless otherwise indicated. Myo-inositol (Sigma Aldrich Canada Ltd.) and D-chiro-inositol (Industrial Research Ltd.) were dissolved in water at an equal concentration to the amounts present in the BWE (Table 3) and 2 μL of each solution was added directly to cells.
as §1, with “as described in Example 3. Briefly,” for “following the method disclosed by Yau et al., (1998, Eur. J. Biochem. 253: 91-1). The H4IIE”, “50” for “25”, “50 μg·mL^−1” for “25 units·mL^−1”
^3H-deoxyglucose uptake was assayed using the method disclosed by Harrison et al. (1990, J. Biol. Chem. 265(10):5793-5801). Quiescent H4IIE cells, in 24-well culture dishes containing 1 mL serum-free medium, were washed three times with physiological salt solution (PSS) ([…], pH 7.4). Cells were placed into 0.5 mL PSS and pre-incubated with inhibitors for 10 minutes prior to the 20 minute stimulation with treatments (insulin, BWE, D-CI, MI). For all experiments, insulin was added at a concentration of 10^−6 M whereas 2 μL volumes of the BWE, D-CI, or MI (0.4% v/v final concentration) were added to cells unless otherwise indicated in figures. Sugar uptake was initiated by the addition of ^3H-deoxyglucose to a final assay concentration of 0.1 mM glucose (1 mCi/mL) and the cells were subsequently incubated for 5 minutes at 37° C. After two rapid washes with ice-cold PSS (0.5-1 mL/well), the cells were solubilized with 0.4 mL of 0.1% SDS, and ^3H was detected in 3 mL of EcoLume scintillant (MP Biomedicals Inc., Costa Mesa, Calif., USA, 92626).
Statistical significance between treatments was determined by one-way ANOVA and by Duncan's multiple range test for means testing (SAS v.9.1, SAS Institute Inc., Cary, N.C.). […] Data are expressed as the mean±SE.
Since insulin has the same effect, we compared the ability of BWE, insulin and two insulin-mimetic compounds (D-CI and MI) to stimulate glucose uptake by H4IIE hepatoma cells. […] Radio-labelled deoxyglucose was added to the medium and glucose uptake was determined by the detection of ^3H in cells.
Fractions (˜1.0 ml) from each solvent extraction were collected and assayed for their effects on MAPK activation as described in Example 3. The effects of selected fractions, alone or in combination with insulin, on the uptake of labelled glucose were assessed following the methods described in Example 4. […] The effects of the solvent fractions on H4IIE cells were assessed with 20-min exposure periods after which, sugar uptake was initiated by the addition of ^3H-deoxyglucose to a final assay concentration of 0.1 mM glucose (1 mCi/mL) and the cells were subsequently incubated for 5 minutes at 37° C. After two rapid washes with ice-cold PSS (0.5-1 mL/well), the cells were solubilized with 0.4 mL of 0.1% SDS, and ^3H was detected in 3 mL of EcoLume scintillant. […]

Compound	effect of the inhibitor on insulin-stimulated glucose uptake (FIG. 23)
1-butanol	decreased insulin-stimulated glucose uptake although the effect was not significant

These compounds were tested on PDK-1 (Ser241) (assay: Western blot of PDK-1 phosphorylation in H4IIE cells). Conditions: BWE-stimulated, 6 min, 15-min preincubation with the inhibitor (None = BWE alone), one experiment.
Assay type: cell-based, rat
Procedure: as §4, §1, §2, §3, §5

Compound	PDK-1 (Ser241) phosphorylation, stimulation (fold) relative to the control [fold]
COc1ccc2c(c1)CC[C@@H]1[C@@H]2CC[C@]2(C)[C@@H](NCCCCCCN3C(=O)C=CC3=O)CC[C@@H]12 [U73]	0.49
O=c1cc(N2CCOCC2)oc2c(-c3ccccc3)cccc12 [LY294002]	0.61
N#C/C(=C/c1ccc(O)c(O)c1)C(=O)NCc1ccccc1 [AG490]	0.89

Same assay, conditions: insulin-stimulated, 6 min, 15-min preincubation with the inhibitor (None = insulin alone), one experiment

Compound	PDK-1 (Ser241) phosphorylation, stimulation (fold) relative to the control [fold]
COc1ccc2c(c1)CC[C@@H]1[C@@H]2CC[C@]2(C)[C@@H](NCCCCCCN3C(=O)C=CC3=O)CC[C@@H]12 [U73]	2.30
CC(C)(C)c1cc(C=C(C#N)C#N)cc(Br)c1O [AG1024]	2.30
O=c1cc(N2CCOCC2)oc2c(-c3ccccc3)cccc12 [LY294002]	1.40
N#C/C(=C/c1ccc(O)c(O)c1)C(=O)NCc1ccccc1 [AG490]	1.91
